From ChEMBL document CHEMBL1158571, “Antiplasmodial lanostanes from the Ganoderma lucidum mushroom” (J Nat Prod, 2010)
Calls of active or inactive are those of the source. The rule behind the calls is not given here.

Columns and labels:
Plasmodium falciparum [1] = experiment: Antiplasmodial activity against Plasmodium falciparum at 20 uM; format: functional, organism-based
Plasmodium falciparum [2] = experiment: Antiplasmodial activity against Plasmodium falciparum; format: functional, organism-based

Structure (SMILES) | Activity (Plasmodium falciparum [1]) | IC50 (Plasmodium falciparum [2])
CC(C)=CCC/C(C)=C/CCC(C(=O)O)c1cc2cc(O)ccc2o1 (stereo not drawn) | inactive | –
C/C(=C\CC[C@@H](C)[C@H]1C[C@@H](O)[C@@]2(C)C3=CC[C@H]4C(C)(C)C(=O)CC[C@]4(C)C3=CC[C@]12C)C(=O)O [GANODERIC ACID TR 1] | – | 18 µM
C/C(=C/CC[C@@H](C)[C@H]1C[C@H](O)[C@@]2(C)C3=CC[C@H]4C(C)(C)C(=O)CC[C@]4(C)C3=CC[C@]12C)C(=O)O [GANODERIC ACID TR] | – | 20 µM
C[C@H](CC[C@@H](O)C(C)(C)O)[C@H]1CC[C@@]2(C)C3=CC[C@H]4C(C)(C)C(=O)CC[C@]4(C)C3=CC[C@]12C [GANODERMANONDIOL] | – | 13 µM
C/C(=C/C(O)C[C@@H](C)[C@H]1CC[C@@]2(C)C3=CC[C@H]4C(C)(C)C(O)CC[C@]4(C)C3=CC[C@]12C)C(=O)O (stereo partly drawn) | – | 11 µM
C/C(=C/CC[C@@H](C)[C@H]1CC[C@@]2(C)C3=CC[C@H]4C(C)(C)C(=O)CC[C@]4(C)C3=CC[C@]12C)C(=O)O [GANODERIC ACID S] | – | 11 µM
C/C(=C/CC[C@@H](C)[C@H]1CC[C@@]2(C)C3=C(CC[C@]12C)[C@@]1(C)CCC(=O)C(C)(C)[C@@H]1CC3=O)C(=O)O | inactive | –
C/C(C=O)=C/CC[C@@H](C)[C@H]1C[C@H](O)[C@@]2(C)C3=CC[C@H]4C(C)(C)C(=O)CC[C@]4(C)C3=CC[C@]12C [GANODERIC ALDEHYDE TR] | – | 6 µM
